{"source": "patent US20090123501A1", "about": "“INHIBITION OF THE SH2-DOMAIN CONTAINING PROTEIN TYR-PHOSPHATASE, SHP-1, TO ENHANCE VACCINES” (Baylor College of Medicine, priority 2007, published 2009)", "key": {"TRAMP C2 tumors": {"system": "TRAMP C2 tumors", "assay": "DC vaccination of mice bearing ectopic TRAMP C2 tumors", "assay_type": "in vivo, C57BL/6 mice", "settings": "by viral transduction, pooled across all peptide treatments, vs untreated mice", "method": "BMDCs were prepared as described above, transduced with either Ad5-SHP-1-shRNA or the control Ad5-scrambled-shRNA at 40,000 viral particles/cell, and pulsed with one of the six peptides listed in Table 1 (OVA, an irrelevant epitope to TRAMP 2 tumors, served as a negative control peptide) or a lysate of TRAMP C2 cells as a positive control antigen. 6-8 week C57BL/6 mice, bearing TRAMP C2 tumors (7×10^6 cells injected s.c. on the dorsal flank three days prior to vaccination), were given a single i.p. vaccination with 2×10^6 treated DCs or left untreated. Tumors were measured (length and width using calipers) every 2-4 days until termination of the study and tumor volume was estimated using the formula: Tumor volume (mm3)=x^2y×0.5236, where x is the smaller tumor dimension, and y is the larger tumor dimension. A-G) TRAMP tumor growth curves for vaccines loaded with the indicated peptides. Error bars represent the standard error of the mean of 5 mice vaccinated in each treatment. […] H-I) ANOVA analysis of peptide function and SHP-1 function. Data represent the averages 10 mice per peptide treatment and 5 mice in the no treatment control group for H) and 35 mice per viral transduction treatment and 5 mice in the no treatment control group for I). The green diamonds represent the mean and 95% confidence interval for each group from the ANOVA. The black line is the mean of means for the study and red symbols indicate significant differences (p<0.05 by Tukey-Kramer HSD multiple comparisons test).\nTo determine if there was a significant difference between the various peptides used in these DC vaccinations, mice were pooled across viral treatments (Ad5-SHP-1 shRNA or Ad5-scrambled-shRNA) employing the same peptide. An ANOVA for differences in mean tumor volume at day 48 post-vaccination (the time at which the majority of the vaccinated tumor growth curves change slope) and Tukey-Kramer HSD multiple comparisons test.\nNext experiments were conducted to determine if vaccines transduced with Ad5-SHP-1-shRNA inhibited tumor growth compared to transduction with Ad5-scrambled-shRNA or no vaccine treatment, irrespective of what peptide was used in the vaccine."}, "BMDCs": {"system": "BMDCs", "assay": "In vitro transwell DC migration to CCL21", "assay_type": "cell-based, C57BL/6 mice", "settings": "BMDCs transduced 48 hours, 100 ng/mL CCL21, 3 hours transwell", "method": "Primary bone marrow-derived dendritic cells (BMDCs) were prepared from wild type mice in the following manner: Bone marrow cells were flushed from the femurs and tibias of C57BL/6 mice and cultured for 6 days in RPMI media supplemented with 10% FBS, 10 ng/mL IL-4 and 10 ng/mL GMCSF along with antibiotics. On day 6, dendritic cells (DCs) were either purified by magnetic bead assisted cell sorting (MACS; Miltenyi Biotec, Auburn, Calif.) prior to adenoviral transduction, or used as unpurified bulk DCs that were then transduced with adenovirus.\nFor DCs to initiate an immune response, they must capture antigen in the periphery and then migrate to the lymph nodes where they stimulate antigen specific T cells. To determine if SHP-1 signaling could affected the ability of DCs to migrate to draining lymph nodes, trafficking studies were performed both in vitro and in vivo. For the in vitro DC migration assays, unpurified bulk BMDCs were transduced with either Ad5-SHP1-shRNA or Ad5-scrambled-shRNA for 48 hours or left untreated. Half of the untreated cells were treated with 1 μg/mL LPS for 24 hours. Cells were collected and washed in serum-free media (SFM) and resuspended at 5×10^6 cells/mL. […] BMDCs migrating into the lower chamber were counted using a hematocytometer."}}, "data": [{"sequence": "CACCGGAGCATGACACAGCAGAATACGAATATTCTGCTGTGTCATGCTCC (chemistry not given here) [Ad5-SHP-1-shRNA]", "values": [{"measurement": "TRAMP C2 tumor volume (ANOVA)", "setting": "TRAMP C2 tumors", "value": "significantly lower tumor volumes"}, {"measurement": "migration index (migration to CCL21 relative to migration without CCL21)", "setting": "BMDCs", "value": "not significantly different from that of untreated cells"}]}]}
